The record followed here is patent US20230064983A1 (priority 2020, published 2023).

SMILES strings stand for the structures. Where two headings read alike, the source gives them in different places.

Experiment [1] concerns the target T1, EGFR with insertion SVD between D770 and N771 (mutEGFR D770_N771insSVD) (Homo sapiens, UniProt P00533, DUP768-770).
T1 construct: amino acids R669 to A1210; made in house; host or cells: Sf9 insect cells (baculovirus)
Briefly: Exon20-Mutant-EGFR(D770_N771insSVD) kinase assay (TR-FRET). It counts as biochemical. To be noted: 2 mM ATP, Table 2.

In experiment [2] the target is T2, Bub1 (Homo sapiens, UniProt O43683).
T2 construct: catalytic domain of human Bub1 (amino acids 704-1085); His6 (N); made in house; host or cells: insect cells (Hi5)
Briefly: Bub1 high ATP kinase assay (TR-FRET). It counts as biochemical. Conditions: 2 mM ATP, Table 3. From the text:
Bub1 high ATP Kinase Assay
Bub1-inhibitory activity of compounds of the present invention at a high ATP concentration was quantified employing the Bub1 TR-FRET high ATP kinase assay as described in the following paragraphs.
N-terminally His6-tagged recombinant catalytic domain of human Bub1 (amino acids 704-1085), expressed in insect cells (Hi5) and purified by Ni-NTA affinity chromatography and subsequent size exclusion chromatography, was used as enzyme. As substrate for the kinase reaction the biotinylated peptide biotin-Ahx-[…] (C-terminus in amid form) was used which can be purchased e.g. form the company Biosyntan (Berlin, Germany).
Then the kinase reaction was started by the addition of 2 μl of a solution of Bub1 in assay buffer and the resulting mixture was incubated for a reaction time of 60 min at 22° C. The concentration of Bub1 was adjusted depending of the activity of the enzyme lot and was chosen appropriate to have the assay in the linear range, a typical concentration is about 200 ng/ml. The reaction was stopped by the addition of 3 μl of a solution of TR-FRET detection reagents (0.167 μM streptavidine-XL665 [Cisbio Bioassays, Codolet, France] and 1.67 nM anti-phosho-Serine antibody [Merck Millipore, cat. #35-002] and 0.67 nM LANCE EU-W1024 labeled anti-mouse IgG antibody [Perkin-Elmer, product no. AD0077, as an alternative a Terbium-cryptate-labeled anti-mouse IgG antibody from Cisbio Bioassays can be used]) in an aqueous EDTA-solution (83.3 mM EDTA, 0.2% (w/v) bovine serum albumin in 100 mM HEPES pH 7.5).
The resulting mixture was incubated 1 h at 22° C. to allow the formation of complex between the phosphorylated biotinylated peptide and the detection reagents. Subsequently the amount of phosphorylated substrate was evaluated by measurement of the resonance energy transfer from the Eu-chelate to the streptavidine-XL. Therefore, the fluorescence emissions at 620 nm and 665 nm after excitation at 350 nm was measured in a TR-FRET reader, e.g. a Pherastar or Pherastar FS (both from BMG Labtechnologies, Offenburg, Germany) or a Viewlux (Perkin-Elmer). The ratio of the emissions at 665 nm and at 622 nm was taken as the measure for the amount of phosphorylated substrate.
(In general: Time-resolved FRET reads energy transfer from a long-lived donor to a nearby acceptor.)

Experiment [3] has as its target Ba/F3-EGFR-D770_N771insSVD cells (Homo sapiens, UniProt P00533, DUP768-770, cells depend on it). Briefly: Ba/F3 cell survival assay, EGFR D770_N771insSVD. It counts as cell-based.
Experiment [4] concerns the target Ba/F3-EGFR-WT cells (Homo sapiens, UniProt P00533). The experiment can be described thus: Ba/F3 cell survival assay, wild type EGFR. Format: cell-based.
Setting [5] is: Bub1 high ATP (2 mM) IC50, TR-FRET.
Where [6] appears, read: Cell Titer-Glo, 48 h, without IL-3; Table 4; read-out: BA/F3 (insSVD) IC50.
Where [7] appears, read: Cell Titer-Glo, 48 h, with 10 ng/mL EGF; Table 4; read-out: BA/F3 (wild type) IC50.

T1 sequence (P00533 other isoform, or with tags, fused parts or gaps DUP768-770): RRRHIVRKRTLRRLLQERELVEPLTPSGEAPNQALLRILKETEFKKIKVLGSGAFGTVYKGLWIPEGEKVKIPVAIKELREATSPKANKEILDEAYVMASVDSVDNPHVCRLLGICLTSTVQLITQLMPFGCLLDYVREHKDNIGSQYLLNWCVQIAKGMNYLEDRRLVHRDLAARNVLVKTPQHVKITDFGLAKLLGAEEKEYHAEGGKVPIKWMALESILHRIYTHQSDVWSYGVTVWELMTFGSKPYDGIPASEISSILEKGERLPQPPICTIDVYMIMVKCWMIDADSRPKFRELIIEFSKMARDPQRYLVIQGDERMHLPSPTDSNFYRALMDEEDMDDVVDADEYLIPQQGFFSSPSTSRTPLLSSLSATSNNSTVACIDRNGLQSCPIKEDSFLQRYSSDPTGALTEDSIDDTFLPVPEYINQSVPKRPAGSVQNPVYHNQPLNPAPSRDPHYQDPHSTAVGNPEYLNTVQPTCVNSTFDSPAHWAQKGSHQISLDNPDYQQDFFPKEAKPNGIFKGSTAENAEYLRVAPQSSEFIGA
T2 sequence (O43683 704-1085): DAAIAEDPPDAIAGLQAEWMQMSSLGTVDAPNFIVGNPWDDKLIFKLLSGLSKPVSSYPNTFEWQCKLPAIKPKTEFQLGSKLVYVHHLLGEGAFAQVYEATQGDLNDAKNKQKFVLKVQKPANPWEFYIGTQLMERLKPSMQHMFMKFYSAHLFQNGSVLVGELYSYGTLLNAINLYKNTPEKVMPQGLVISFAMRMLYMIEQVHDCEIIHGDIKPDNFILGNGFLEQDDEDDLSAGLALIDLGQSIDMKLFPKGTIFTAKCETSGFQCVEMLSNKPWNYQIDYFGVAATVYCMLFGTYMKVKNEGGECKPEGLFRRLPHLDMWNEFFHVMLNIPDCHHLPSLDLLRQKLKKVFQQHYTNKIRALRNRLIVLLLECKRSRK
Sequence of Ba/F3-EGFR-WT cells (P00533 whole entry, looked up, change not shown): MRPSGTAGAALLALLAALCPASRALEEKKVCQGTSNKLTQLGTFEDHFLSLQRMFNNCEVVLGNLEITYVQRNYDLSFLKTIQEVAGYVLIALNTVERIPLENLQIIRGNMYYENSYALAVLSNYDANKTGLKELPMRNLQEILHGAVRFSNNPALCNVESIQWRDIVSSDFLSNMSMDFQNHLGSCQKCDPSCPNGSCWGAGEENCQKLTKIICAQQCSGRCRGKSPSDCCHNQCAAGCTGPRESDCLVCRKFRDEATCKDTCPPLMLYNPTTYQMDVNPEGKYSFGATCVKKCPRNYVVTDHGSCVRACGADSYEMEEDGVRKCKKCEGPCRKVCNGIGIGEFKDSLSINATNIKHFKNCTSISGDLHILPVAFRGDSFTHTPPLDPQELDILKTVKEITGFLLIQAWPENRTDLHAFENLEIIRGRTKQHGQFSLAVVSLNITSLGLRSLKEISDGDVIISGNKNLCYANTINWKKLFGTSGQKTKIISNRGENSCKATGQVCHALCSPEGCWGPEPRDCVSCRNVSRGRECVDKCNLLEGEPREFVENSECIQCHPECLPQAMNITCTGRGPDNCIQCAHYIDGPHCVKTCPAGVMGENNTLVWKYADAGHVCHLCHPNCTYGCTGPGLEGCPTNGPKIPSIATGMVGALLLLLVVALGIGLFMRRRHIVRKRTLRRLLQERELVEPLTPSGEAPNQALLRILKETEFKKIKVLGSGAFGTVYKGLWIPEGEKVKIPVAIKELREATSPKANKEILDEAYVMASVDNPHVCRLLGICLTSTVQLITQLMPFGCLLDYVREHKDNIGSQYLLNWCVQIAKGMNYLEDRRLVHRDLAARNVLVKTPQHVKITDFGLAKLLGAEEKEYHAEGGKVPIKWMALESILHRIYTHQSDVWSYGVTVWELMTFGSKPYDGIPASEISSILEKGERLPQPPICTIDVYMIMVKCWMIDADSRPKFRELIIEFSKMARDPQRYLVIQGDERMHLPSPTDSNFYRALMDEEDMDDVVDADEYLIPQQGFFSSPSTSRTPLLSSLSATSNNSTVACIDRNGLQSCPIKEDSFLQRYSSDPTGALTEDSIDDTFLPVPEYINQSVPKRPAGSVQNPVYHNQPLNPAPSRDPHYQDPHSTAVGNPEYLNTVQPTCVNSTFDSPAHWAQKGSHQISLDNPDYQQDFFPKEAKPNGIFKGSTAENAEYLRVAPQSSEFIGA
Sequence of Ba/F3-EGFR-D770_N771insSVD cells (P00533 with tags, fused parts or gaps DUP768-770): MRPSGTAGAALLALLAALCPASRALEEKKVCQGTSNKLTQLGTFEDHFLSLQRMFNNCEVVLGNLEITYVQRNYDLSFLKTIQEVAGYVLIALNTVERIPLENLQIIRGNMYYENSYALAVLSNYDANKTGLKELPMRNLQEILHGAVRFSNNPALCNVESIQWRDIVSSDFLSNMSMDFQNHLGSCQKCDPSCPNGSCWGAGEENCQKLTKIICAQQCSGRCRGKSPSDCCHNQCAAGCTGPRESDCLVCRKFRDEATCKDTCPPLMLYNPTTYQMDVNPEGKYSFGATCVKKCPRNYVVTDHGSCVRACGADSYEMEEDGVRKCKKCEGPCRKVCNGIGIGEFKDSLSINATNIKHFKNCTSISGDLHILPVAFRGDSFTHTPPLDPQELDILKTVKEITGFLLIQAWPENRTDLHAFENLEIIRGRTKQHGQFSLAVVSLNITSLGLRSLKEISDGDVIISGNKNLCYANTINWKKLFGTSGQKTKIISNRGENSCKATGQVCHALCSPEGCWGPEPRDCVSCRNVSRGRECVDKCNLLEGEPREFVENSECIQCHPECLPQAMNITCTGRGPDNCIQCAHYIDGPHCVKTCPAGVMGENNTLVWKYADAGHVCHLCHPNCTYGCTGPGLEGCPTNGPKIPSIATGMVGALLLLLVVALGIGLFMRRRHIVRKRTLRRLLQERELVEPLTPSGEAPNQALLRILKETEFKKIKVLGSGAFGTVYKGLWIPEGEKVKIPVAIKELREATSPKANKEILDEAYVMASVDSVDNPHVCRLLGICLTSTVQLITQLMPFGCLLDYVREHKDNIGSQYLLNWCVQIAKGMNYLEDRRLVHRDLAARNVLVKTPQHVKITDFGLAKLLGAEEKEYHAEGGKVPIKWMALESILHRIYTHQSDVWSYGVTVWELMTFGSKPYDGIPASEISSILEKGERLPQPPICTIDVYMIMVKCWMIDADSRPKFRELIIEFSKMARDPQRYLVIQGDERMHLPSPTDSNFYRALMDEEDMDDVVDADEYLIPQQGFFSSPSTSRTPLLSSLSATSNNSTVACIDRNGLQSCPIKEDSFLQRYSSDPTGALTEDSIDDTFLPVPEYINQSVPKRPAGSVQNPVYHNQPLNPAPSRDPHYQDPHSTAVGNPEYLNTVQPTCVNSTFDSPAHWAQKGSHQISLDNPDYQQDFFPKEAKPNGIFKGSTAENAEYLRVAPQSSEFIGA

One may read the IC50 as the concentration needed to halve the response being measured. With `COc1c(Cl)cccc1Nc1c(-c2ccncc2OCC2CCCCO2)[nH]c2c1C(=O)NCC2C` (single isomer, unassigned) [Example 47, 3-(3-chloro-2-methoxy-anilino)-7-methyl-2-[3-(tetrahydropyran-2-ylmethoxy)-4-pyridyl]-1,5,6,7-tetrahydropyrrolo[3,2-c]pyridin-4-one], the “mutEGFR (D770_N771insSVD) kinase assay IC50” value (“mutEGFR” below) in experiment [1] worked out at 0.667 nM. The same compound gave an IC50 in experiment [2] (setting [5]) of 7600 nM. The results for the GI50 in experiment [3] (setting [6]) and in experiment [4] (setting [7]) were 106 nM and 1990 nM, respectively.

On to `COc1c(Cl)cccc1Nc1c(-c2ccncc2OCC2COCCO2)[nH]c2c1C(=O)NC1(CCC1)C2` (single isomer, unassigned) [Example 125, 3-(3-chloro-2-methoxy-anilino)-2-[3-(1,4-dioxan-2-ylmethoxy)-4-pyridyl]spiro[5,7-dihydro-1H-pyrrolo[3,2-c]pyridine-6,1′-cyclobutane]-4-one], for which, in experiment [1], the “mutEGFR” value is 0.235 nM. This compound gave an IC50 in experiment [2] (setting [5]) of 446 nM. In addition, the GI50 in experiment [3] (setting [6]) worked out at 40.4 nM; in experiment [4] (setting [7]), 948 nM.

Take `COc1c(Cl)cccc1Nc1c(-c2ccncc2OC[C@@H]2CCCO2)[nH]c2c1C(=O)NCC2C` (mixture of isomers) [Example 30, 3-(3-chloro-2-methoxy-anilino)-7-methyl-2-(3-{[(2S)-tetrahydrofuran-2-yl]methoxy}-4-pyridyl)-1,5,6,7-tetrahydropyrrolo[3,2-c]pyridin-4-one]: the “mutEGFR” value in experiment [1] came out at 0.147 nM. The same compound came in with an IC50 in experiment [2] (setting [5]) of 11300 nM. Besides, the GI50 in experiment [3] (setting [6]) came out at 44 nM; in experiment [4] (setting [7]), 606 nM.

On to `COc1c(Cl)cccc1Nc1c(-c2ccncc2OCCC2CCCCO2)[nH]c2c1C(=O)N[C@H](C)C2` (single isomer, unassigned) [Example 88], for which the “mutEGFR” value in experiment [1] was determined as 0.326 nM. Besides, the midpoint of inhibition in experiment [2] (setting [5]), the IC50, lay at 978 nM. Moreover, the GI50 in experiment [3] (setting [6]) came out at 70.4 nM; in experiment [4] (setting [7]) it was 634 nM.

Regarding `COc1c(Cl)cccc1Nc1c(-c2ccncc2OCC2(C)CCO2)[nH]c2c1C(=O)NCC2CCO` (single isomer, unassigned) [Example 21, 3-(3-chloro-2-methoxyanilino)-7-(2-hydroxyethyl)-2-{3-[(2-methyloxetan-2-yl)methoxy]pyridin-4-yl}-1,5,6,7-tetrahydro-4H-pyrrolo[3,2-c]pyridin-4-one], the “mutEGFR” value in experiment [1] was found to be 0.473 nM. Further, the IC50 in experiment [2] (setting [5]) is more than 20000 nM. Further, the GI50 amounted to 67.9 nM in experiment [3] (setting [6]) and 943 nM in experiment [4] (setting [7]).

In the case of `COc1c(Cl)cccc1Nc1c(-c2ccncc2OC[C@@H]2COCCN2C)[nH]c2c1C(=O)N[C@H](C)C2` [Example 93, (6R)-3-(3-chloro-2-methoxyanilino)-6-methyl-2-(3-{[(3S)-4-methylmorpholin-3-yl]methoxy}pyridin-4-yl)-1,5,6,7-tetrahydro-4H-pyrrolo[3,2-c]pyridin-4-one], the “mutEGFR” value in experiment [1] was determined as 0.4 nM. In experiment [2] (setting [5]), this compound gave an IC50 of 5420 nM. The GI50 in experiment [3] (setting [6]) turned out to be 8.67 nM; in experiment [4] (setting [7]), 254 nM.

For the compound `COc1c(Cl)cccc1Nc1c(-c2ccncc2OCC2(C)CCO2)[nH]c2c1C(=O)NCC2CCO` (single isomer, unassigned) [Example 23, 3-(3-chloro-2-methoxyanilino)-7-(2-hydroxyethyl)-2-{3-[(2-methyloxetan-2-yl)methoxy]pyridin-4-yl}-1,5,6,7-tetrahydro-4H-pyrrolo[3,2-c]pyridin-4-one], in experiment [1], the “mutEGFR” value was 0.796 nM. The IC50 in experiment [2] (setting [5]) is more than 20000 nM. Further, the GI50 in experiment [3] (setting [6]) amounted to 920 nM; in experiment [4] (setting [7]) it was 7380 nM.

For `Cc1c(Cl)cccc1Nc1c(-c2ccncc2OC[C@@H]2CCCO2)[nH]c2c1C(=O)N[C@H](C)C2` [Example 104, (6R)-3-(3-chloro-2-methylanilino)-6-methyl-2-(3-{[(2S)-oxolan-2-yl]methoxy}pyridin-4-yl)-1,5,6,7-tetrahydro-4H-pyrrolo[3,2-c]pyridin-4-one], the “mutEGFR” value in experiment [1] was determined as 0.162 nM. Also, the IC50 in experiment [2] (setting [5]) was determined as 3630 nM. Also, the GI50 in experiment [3] (read-out: BA/F3 (insSVD) IC50; Cell Titer-Glo, 48 h, without IL-3; Table 4) was found to be 32.3 nM; in experiment [4] (read-out: BA/F3 (wild type) IC50; Cell Titer-Glo, 48 h, with 10 ng/mL EGF; Table 4), 983 nM.

For the compound `COc1c(Cl)cccc1Nc1c(-c2ccncc2OCC2COCCO2)[nH]c2c1C(=O)N[C@H](C)C2` (single isomer, unassigned) [Example 25], the “mutEGFR” value in experiment [1] came out at 0.141 nM. Moreover, in experiment [2] (setting [5]), the IC50 is 5410 nM. Moreover, the GI50 in experiment [3] (setting [6]) is 25.9 nM; in experiment [4] (setting [7]) it was 358 nM.

Regarding `COc1c(Cl)cccc1Nc1c(-c2ccncc2OCC2(C)CCO2)[nH]c2c1C(=O)NCC2CCO` (single isomer, unassigned) [Example 22, 3-(3-chloro-2-methoxyanilino)-7-(2-hydroxyethyl)-2-{3-[(2-methyloxetan-2-yl)methoxy]pyridin-4-yl}-1,5,6,7-tetrahydro-4H-pyrrolo[3,2-c]pyridin-4-one], in experiment [1], the “mutEGFR” value came out at 0.66 nM. For the same compound, 11600 nM corresponded to half-maximal inhibition in experiment [2] (setting [5]) (IC50). Moreover, the GI50 in experiment [3] (setting [6]) turned out to be 616 nM; in experiment [4] (setting [7]) it was 2630 nM.

For the compound `COCC(C)Oc1cnccc1-c1[nH]c2c(c1Nc1cccc(Cl)c1OC)C(=O)N[C@H](C)C2` (mixture of isomers) [Example 41, (6R)-3-(3-chloro-2-methoxy-anilino)-2-{3-[(1-methoxypropan-2-yl)oxy]-4-pyridyl}-6-methyl-1,5,6,7-tetrahydropyrrolo[3,2-c]pyridin-4-one], the “mutEGFR” value in experiment [1] came to 0.178 nM. The same compound registered an IC50 in experiment [2] (setting [5]) of 17000 nM. In addition, the GI50 in experiment [3] (setting [6]) worked out at 39.8 nM; in experiment [4] (setting [7]), 479 nM.

Turning to `COc1c(Cl)cccc1Nc1c(-c2ccncc2OCC2COC(C)(C)CO2)[nH]c2c1C(=O)NCC2C` (single isomer, unassigned) [Example 97, 3-(3-chloro-2-methoxy-anilino)-2-[3-[(5,5-dimethyl-1,4-dioxan-2-yl)methoxy]-4-pyridyl]-7-methyl-1,5,6,7-tetrahydropyrrolo[3,2-c]pyridin-4-one], the “mutEGFR” value in experiment [1] amounted to 0.796 nM. Moreover, the IC50 in experiment [2] (read-out: Bub1 high ATP (2 mM) IC50, TR-FRET) was more than 20000 nM. The GI50 in experiment [3] (setting [6]) came out at 32.1 nM; in experiment [4] (setting [7]), 1130 nM.

For `COc1c(Cl)cccc1Nc1c(-c2ccncc2OCC2CCCCO2)[nH]c2c1C(=O)NCC2C` (single isomer, unassigned) [Example 48, 3-(3-chloro-2-methoxy-anilino)-7-methyl-2-[3-(tetrahydropyran-2-ylmethoxy)-4-pyridyl]-1,5,6,7-tetrahydropyrrolo[3,2-c]pyridin-4-one], the “mutEGFR” value in experiment [1] was 0.227 nM. This compound displayed an IC50 in experiment [2] (setting [5]) of 9130 nM. The GI50 in experiment [3] (setting [6]) was 25.7 nM; in experiment [4] (setting [7]), 611 nM.

Turning to `Cc1c(Cl)cccc1Nc1c(-c2ccncc2OC[C@@H]2CCCO2)[nH]c2c1C(=O)NCC2C` (mixture of isomers) [Example 58, 3-(3-chloro-2-methyl-anilino)-7-methyl-2-(3-{[(2S)-oxolan-2-yl]methoxy}pyridin-4-yl)-1,5,6,7-tetrahydropyrrolo[3,2-c]pyridin-4-one], the “mutEGFR” value in experiment [1] is 0.148 nM. In experiment [2] (setting [5]), 3360 nM corresponded to half-maximal inhibition (IC50). Besides, the GI50 in experiment [3] (setting [6]) stood at 72.9 nM; in experiment [4] (setting [7]), 1250 nM.

As for `COC(C)(C)COc1cnccc1-c1[nH]c2c(c1Nc1cccc(F)c1CC(F)F)C(=O)N[C@H](C)C2` [Example 65, (6R)-3-[2-(2,2-difluoroethyl)-3-fluoroanilino]-2-[3-(2-methoxy-2-methylpropoxy)pyridin-4-yl]-6-methyl-1,5,6,7-tetrahydro-4H-pyrrolo[3,2-c]pyridin-4-one], the “mutEGFR” value in experiment [1] came to 0.24 nM. For the same compound, the IC50 in experiment [2] (setting [5]) came to 2520 nM. Moreover, the GI50 is 72 nM in experiment [3] (setting [6]) and 795 nM in experiment [4] (setting [7]).
